# Experimental data reported in US7173015B2, “Inhibition of Syk kinase expression” (The Trustees of the University of Pennsylvania, priority 2003, dated 2007).
# Entries after “also recorded” stand apart in the source; their conditions may differ.
# Legend:
# HS-24 cells = assay: Viability of HS-24 cells by trypan blue dye exclusion; assay type: cell-based; conditions: no significant effect on viability
# Syk mRNA = assay: RT-PCR of Syk mRNA in HS-24 cells after siRNA treatment; assay type: cell-based; conditions: 48 h treatment
# Protocol: (§1) FIGS. 5A and 5B. (FIG. 5A) HS-24 cells, following siRNA treatment, were lysed and equal amounts of total protein in HS-24 cell lysates were resolved by 10% SDS gel electrophoresis, and analyzed by Western blot using monoclonal antibody to Syk or actin. Lane 1—no treatment, lane 2—siRNA-1 (control) 24 h treatment, lane 3—siRNA-1 48 h treatment, lane 4—siRNA-2 24 h treatment, lane 5—siRNA-2 48 h treatment. (FIG. 5B) RNA was isolated and RT-PCR was performed for Syk and β-actin. Lane 1—no treatment, lane 2—SiRNA-1 (control) 48 h treatment, lane 3—siRNA-2 48 h treatment.
# (§2) More specifically, HS-24 cells were transiently transfected with siRNA-2 or siRNA-1 (control). Cell surface expression of ICAM-1, as well as release of IL-6, were then examined.
# Syk kinase = assay: Western blot densitometry of Syk kinase protein in RBL-2H3 cells transfected with siRNA; assay type: cell-based, rat; conditions: for Syk (densitometry quantification of Syk kinase expression) / Syk Corr (Syk densitometry units corrected for % actin expression in each lane): 48 hours after transfection; for Syk (densitometry quantification of Syk kinase expression): Western blot; for Syk Corr (Syk densitometry units corrected for % actin expression in each lane): normalized to actin; for % Syk Inhibition: compared to transfection control
# Protocol: Rat basophilic cells (RBL-2H3) were grown in EMEM supplemented with 17% FBS, 100 U penicillin, 100 μg/ml streptomycin, and 4 mM glutamine at 37° C. in 5% CO2.
# SIRNA was introduced into RBL-2H3 cells and into monocytes by transfection. For the transfections, 5×10^4 RBL-2H3 cells or 1×10^5 monocytes were seeded into each well of a 24-well plate. Twenty-four hours later, the complete medium was replaced with 400 μl fresh medium lacking serum and antibiotic and siRNA/Lipofectamine 2000 complex was added to each well. For the RBL cells, the siRNA/Lipofectamine 2000 complex was formed by adding 3 μl of siRNA duplex (20 μM) and 3 μl of Lipofectamine 2000 to 100 μl Opti-mem without serum or antibiotic according to the manufacturer's protocol. For monocytes, the siRNA/Lipofectamine 2000 complex was formed by adding 3 μl of siRNA duplex (20 μM) and 1 μl of Lipofectamine 2000 to 100 μl Opti-mem without serum or antibiotic. Cells were incubated at 37° C. for 48 hours before examination of kinase protein expression by Western blotting
# Lysates were prepared by boiling cells in Laemmli sample buffer (2% SDS, 10% glycerol, 100 mM DTT, and 60 mM Tris (pH 6.8) for 5 minutes. Proteins in lysates were separated by SDS-PAGE (10% polyacrylamide) and transferred to a nitrocellulose membrane in […] (25 mM Tris, 190 mM glycine, and 20% methanol). The nitrocellulose membrane was incubated overnight at 4° C. with 1 μg/ml rabbit anti-murine Syk kinsae polyclonal Ab before incubation with goat anti-rabbit HRP (1.5 h at room temperature). Protein bands on the membrane were visualized with chemiluminescence reagent according to the manufacturer's protocol. After detection of Syk kinase protein, the anti-Syk kinase Ab was removed by incubating the membrane in a stripping buffer containing 100 mM 2-ME, 2% SDS, and 62.5 mM Tris-HCL (pH 6.7) for 30 minutes at 50° C. with occasional agitation. The membrane was then reprobed with anti-actin Ab and bands on the membrane were visualized with chemiluminescence reagent. Protein levels of Syk kinase were quantified by densitometry (Personal Densitometer, Molecular Dynamics).
# Syk = assay: Western blot of Syk protein expression in HS-24 cells after siRNA treatment; assay type: cell-based; conditions: 48 hr treatment
# Protocol: as §1
# HS-24 cells (2×10^5) were pre-treated with 3 μl of siRNA-1 (control)
# (§3) or Syk antisense, with Lipofectamine 2000 in a 12-well plate for 24 or 48 hr, and stimulated by 10 ng/ml of TNF overnight. Read-outs: IL-6 in culture supernatant (ELISA) and cell surface expression of ICAM-1 (Flow cytometry). As shown by Western blot analysis ([…]), siRNA-2 caused a decrease in Syk protein expression following 48 hr of treatment.
# as §2
# [1] = system: ICAM-1 (CD54) expression in HS-24 cells; assay: Cell surface expression of ICAM-1 in HS-24 cells (flow cytometry); assay type: cell-based; conditions: for TNF-induced ICAM-1 expression: siRNA 48 h, TNF 10 ng/ml overnight
# Protocol: (§4) FIGS. 6A and 6B. HS-24 cells plated on either polylysine coated plates (non stimulated, resting) or fibronectin coated plates (stimulated) were treated with siRNA-2, or siRNA-1 (control), or piceatannol. Cells were treated with 10 ng/ml of TNF during overnight culture. (FIG. 6A) Following siRNA (48 h) or piceatannol (16 h) treatment, cells were removed, immunostained with anti-CD54 (ICAM-1) and analysed by flow cytometry. (FIG. 6B) Cell culture supernatants were analysed for IL-6 release using an IL-6 ELISA kit. *P<0.05, **P<0.005 as compared to untreated cells (e.g., untreated with siRNA) stimulated with TNF. Results are representative of three to five independent experiments.
# as §3
# [2] = system: IL-6 release by HS-24 cells; assay: IL-6 release of HS-24 cells into culture supernatant (ELISA); assay type: cell-based
# Protocol: as §4, §3
Compound,viability (trypan blue dye exclusion) (HS-24 cells) [%],Syk mRNA expression (Syk mRNA),Syk (densitometry quantification of Syk kinase expression) (Syk kinase) [densitometry units],Syk Corr (Syk densitometry units corrected for % actin expression in each lane) (Syk kinase) [densitometry units],% Syk Inhibition (Syk kinase) [%],Syk protein expression (Syk),TNF-induced ICAM-1 expression (summary of FIG. 6A) ([1]; HS-24 cells),constitutive ICAM-1 expression ([1]; HS-24 cells without TNF stimulation),TNF-induced ICAM-1 expression ([1]; fibronectin-plated HS-24 cells),TNF-induced ICAM-1 expression ([1]; poly-L-lysine-plated HS-24 cells),"IL-6 release (summary of FIG. 6B) ([2]; HS-24 cells, TNF-induced)","down-regulation of IL-6 release ([2]; TNF-stimulated HS-24 cells, poly-L-lysine and fibronectin culture, significant in fibronectin-adherent culture (P<0.05))"
Oc1cc(O)cc(/C=C/c2ccc(O)c(O)c2)c1 [piceatannol],> 96,,,,,,,,,,,
"siRNA-1: Syk kinase siRNA duplex; sense 5′ gaagcccuucaaccggccc UU 3′ (SEQ ID NO: 23), antisense 3′-UU cuucgggaaguuggccggg 5′ (SEQ ID NO: 24) (sense GAAGCCCUUCAACCGGCCCUU; antisense GGGCCGGUUGAAGGGCUUCTT; chemistry not given here)",,not,953,1114,45,not,,,,,,
"siRNA-2: Syk kinase siRNA duplex; sense 5′-ccucaucagggaauaucug UU 3′ (SEQ ID NO: 25), antisense 3′-UU ggaguagucccuuauagac 5′ (SEQ ID NO: 26) (sense CCUCAUCAGGGAAUAUCUGUU; antisense CAGAUAUUCCCUGAUGAGGTT; chemistry not fully specified)",,significantly suppressed,627,997,51,decrease; also recorded: significantly suppressed,down-regulates,not affected,down-regulated,no significant effect,down-regulates,55–58%
